Measured values taken from patent US20260000698A1 (priority 2022, published 2026).

Tests used:
[1] = tested on: SARS-CoV-2 isolate USA-WA1/2020; test: microbe, parasite or virus in culture; details: for EC50: Severe acute respiratory syndrome coronavirus 2, A549-ACE2, 48 h; for inhibition at 10 µM: Severe acute respiratory syndrome coronavirus 2, A549-ACE2, read-out: % inhibition at 10 μM (EC50)
SARS-CoV-2 Nsp14 MTase [2] = target: T1, SARS-CoV-2 Nsp14 MTase (Severe acute respiratory syndrome coronavirus 2, UniProt P0DTD1); test: biochemical; type: biochemical
in vitro = details: human
Procedure: (§1) Percentage of infected cells was determined by dividing the number of infected cells by the total number of cells per well. The percentage of infected cells and total number of cells for each treatment was plotted into GraphPad prism (GraphPad Software; San Diego, CA, USA) to perform a non-linear regression analysis, generate infectious dose-response curves and to calculate EC50 and CC50 values.
(§2) Viability assays for the non-infected A549/ACE2/TMPRSS2 cells were performed using the 3-(4,5-dimethylthiazol-2-yl)-5-(3-carboxymethoxyphenyl)-2-(4-sulfophenyl)-2H-tetrazolium (MTS)-based tetrazolium reduction CellTiter 96 Aqueous Non-Radioactive cell proliferation assay (Promega G5430; Madison, WI) as described. Assays were conducted using parallel plates to those used in the immunofluorescence assay. Experimental details (cell line, number of cells seeded and incubation time) corresponded to those used in the immunofluorescence assay above. The data obtained were used to calculate the CC50 value using GraphPad Prism software.

[3] = tested on: SARS-CoV-2 isolate USA-WA1/2020; details: for EC50: NA (not active): inhibition at 50 μM
A549/ACE2/TMPRSS2 cells = test: in vitro; details: for CC50: NT (nontoxic): cell viability at 50 μM; for CC50: A549/ACE2/TMPRSS2 cells
Procedure: as §1, §2

[4] = Liver S9 stability assay, mouse liver S9; details: cofactor UDPGA, n = 2, mean±SD
SARS-CoV-2 Nsp14 MTase [5] = target: T1, SARS-CoV-2 Nsp14 MTase; test: Nsp14 MTase assay detected with MTase-Glo methyltransferase assay kit; type: biochemical; details: for inhibition at 10 µM: read-out: MTase % inhibition at 10 μM
Procedure: Detection using MTase-Glo™ methyltransferase assay kits. The assay was run according to Promega MTase-Glo™ kit (V7601) instructions. […]. GpppA was purchased by New England Biolabs and used at a final concentration of 3 uM/reaction. […] […] Compounds, Nsp14, GpppA at MTase-Glo™ reagent were pre-incubated for 15 min at room temperature. The assay was started with addition of SAM at final concentration of 1 uM/reaction (negative control had no SAM). The assay plate was mixed well with a plate shaker after each addition. The reaction was incubated for 15 min at 30° C. MTase-Glo™ detection solution was added, and the plate was incubated 60 min at room temperature. Luminescence was read on an M5e spectrophotometer.

[6] = LC-MS/MS detection of SAH, read-out: MTase IC50

Nc1ncnn2c([C@@H]3O[C@H](CNS(=O)(=O)c4ccc5ccccc5c4)[C@@H](O)[C@H]3O)cc(I)c12 [Compound 49, N-(((2R,3S,4R,5S)-5-(4-Amino-5-iodopyrrolo[2,1-f][1,2,4]triazin-7-yl)-3,4-dihydroxytetrahydrofuran-2-yl)methyl)naphthalene-2-sulfonamide]
EC50 [1]: 11 µM
IC50 (SARS-CoV-2 Nsp14 MTase [2]; [6]): 0.046 µM
CC50 (in vitro): 28 µM

Nc1ncnn2c([C@@H]3O[C@H](CNS(=O)(=O)c4cc5ccccc5s4)[C@@H](O)[C@H]3O)ccc12 [Compound 13, N-(((2R,3S,4R,5S)-5-(4-aminopyrrolo[2,1-f][1,2,4]triazin-7-yl)-3,4-dihydroxytetrahydrofuran-2-yl)methyl)benzo[b]thiophene-2-sulfonamide]
EC50 [1]: 1.6 µM
IC50 (SARS-CoV-2 Nsp14 MTase [2]): 0.042 µM
CC50 (in vitro): > 100 µM

CCN(C[C@H]1C[C@@H](n2cnc3c(N)ncnc32)[C@H](O)[C@@H]1O)S(=O)(=O)c1ccc2ccccc2c1 [Compound A2, N-(((1R,2R,3S,4R)-4-(6-Amino-9H-purin-9-yl)-2,3-dihydroxycyclopentyl)methyl)-N-ethylnaphthalene-2-sulfonamide]
inhibition at 10 µM [1]: 29%
IC50 (SARS-CoV-2 Nsp14 MTase [2]; [6]): 0.26 µM
CC50 (in vitro): > 100 µM

Nc1ncnc2c1ncn2[C@@H]1O[C@H](CNC(=O)c2ccc3ccccc3c2)[C@@H](O)[C@H]1O [Compound 2, N-(((2R,3S,4R,5R)-5-(6-Amino-9H-purin-9-yl)-3,4-dihydroxytetrahydrofuran-2-yl)methyl)-2-naphthamide]
EC50: NA (not active) [3]: NA^a (NA, not active, <15% inhibition at 50 μM.)
IC50 (SARS-CoV-2 Nsp14 MTase [2]; [6]): 2.7 µM
CC50: NT (nontoxic) (A549/ACE2/TMPRSS2 cells): NT^b (NT, nontoxic, >95% cell viability at 50 μM;)

Nc1ncnc2c1ncn2[C@@H]1O[C@H](CNS(=O)(=O)c2ccc3cccnc3c2)[C@@H](O)[C@H]1O [Compound 4, N-(((2R,3S,4R,5R)-5-(6-Amino-9H-purin-9-yl)-3,4-dihydroxytetrahydrofuran-2-yl)methyl)quinoline-7-sulfonamide]
EC50: NA (not active) [3]: NA^a (NA, not active, <15% inhibition at 50 μM.)
MTase inhibitory activity (SARS-CoV-2 Nsp14 MTase [2]): comparable to that of compound 1
IC50 (SARS-CoV-2 Nsp14 MTase [2]; [6]): 0.069 µM
CC50: NT (nontoxic) (A549/ACE2/TMPRSS2 cells): NT^b (NT, nontoxic, >95% cell viability at 50 μM;)

CC(=O)O[C@@H]1[C@H](OC(C)=O)[C@@H](CNS(=O)(=O)c2ccc3ccccc3c2)O[C@H]1c1ccc2c(N)ncnn12 [Compound 11, (2S,3S,4R,5R)-2-(4-Aminopyrrolo[2,1-f][1,2,4]triazin-7-yl)-5-((naphthalene-2-sulfonamido)methyl)tetrahydrofuran-3,4-diyl diacetate]
EC50 [1]: 4.3 µM
antiviral activity ([3]; A549 AT cells): less active
CC50 (A549/ACE2/TMPRSS2 cells): 63 µM
cytotoxicity (A549/ACE2/TMPRSS2 cells; human, 100 μM): more toxic than 10

Nc1ncnc2c1ncn2[C@@H]1O[C@H](CNCc2ccc3ccccc3c2)[C@@H](O)[C@H]1O [Compound 1, (2R,3R,4S,5R)-2-(6-Amino-9H-purin-9-yl)-5-(((naphthalen-2-ylmethyl)amino)methyl)tetrahydrofuran-3,4-diol]
EC50: NA (not active) [3]: NA^a (NA, not active, <15% inhibition at 50 μM.)
IC50 (SARS-CoV-2 Nsp14 MTase [2]; [6]): 9.6 µM
CC50: NT (nontoxic) (A549/ACE2/TMPRSS2 cells): NT^b (NT, nontoxic, >95% cell viability at 50 μM;)

O=c1ccc2ccc(O)cc2o1 [Umbelliferone, reference compound]
Mouse Liver S9 Stability t1/2, Phase II [4]: 48 ± 0.3 s

Nc1ncnc2c1ncn2[C@@H]1C[C@H](CNS(=O)(=O)c2ccc3ccccc3c2)[C@H](O)[C@@H]1O [Compound A3, N-(((1R,2S,3R,4R)-4-(6-Amino-9H-purin-9-yl)-2,3-dihydroxycyclopentyl)methyl)naphthalene-2-sulfonamide]
inhibition at 10 µM [1]: 41%
IC50 (SARS-CoV-2 Nsp14 MTase [2]): 103 µM
CC50 (in vitro): > 100 µM

COc1ccc(S(=O)(=O)NC[C@H]2O[C@@H](c3ccc4c(N)ncnn34)[C@H](O)[C@@H]2O)cc1[N+](=O)[O-] [Compound 43, N-(((2R,3S,4R,5S)-5-(4-aminopyrrolo[2,1-f][1,2,4]triazin-7-yl)-3,4-dihydroxytetrahydrofuran-2-yl)methyl)-4-methoxy-3-nitrobenzenesulfonamide]
inhibition at 10 µM (SARS-CoV-2 Nsp14 MTase [5]): 79%

COc1ccc(S(=O)(=O)NC[C@H]2O[C@@H](c3ccc4c(N)ncnn34)[C@H](O)[C@@H]2O)cc1C#N [Compound 41, N-(((2R,3S,4R,5S)-5-(4-aminopyrrolo[2,1-f][1,2,4]triazin-7-yl)-3,4-dihydroxytetrahydrofuran-2-yl)methyl)-3-cyano-4-methoxybenzenesulfonamide]
inhibition at 10 µM (SARS-CoV-2 Nsp14 MTase [5]): 94%

CC(=O)Nc1ncnc2c1ncn2[C@@H]1O[C@H](CNS(=O)(=O)c2ccc3ccccc3c2)[C@@H](O)[C@H]1O [Compound 6, N-(9-((2R,3R,4S,5R)-3,4-Dihydroxy-5-((naphthalene-2-sulfonamido)methyl)tetrahydrofuran-2-yl)-9H-purin-6-yl)acetamide]
EC50: NA (not active) [3]: NA^a (NA, not active, <15% inhibition at 50 μM.)
IC50 (SARS-CoV-2 Nsp14 MTase [2]; LC-MS/MS assay, read-out: IC50): 0.048 µM
CC50 (A549/ACE2/TMPRSS2 cells): > 100 µM

Nc1ncnc2c1ncn2[C@@H]1O[C@H](C[C@@H](N)CC[C@H](N)C(=O)O)[C@@H](O)[C@H]1O [sinefungin, reference compound]
EC50: NA (not active) [3]: NA^a (NA, not active, <15% inhibition at 50 μM.)
CC50: NT (nontoxic) (A549/ACE2/TMPRSS2 cells): NT^b (NT, nontoxic, >95% cell viability at 50 μM;)

Nc1ncnn2c([C@@H]3O[C@H](CNS(=O)(=O)c4csc5ccccc45)[C@@H](O)[C@H]3O)ccc12 [Compound 14, N-(((2R,3S,4R,5S)-5-(4-Aminopyrrolo[2,1-f][1,2,4]triazin-7-yl)-3,4-dihydroxytetrahydrofuran-2-yl)methyl)benzo[b]thiophene-3-sulfonamide]
EC50 [1]: 13 µM
IC50 (SARS-CoV-2 Nsp14 MTase [2]; [6]): 2 µM
CC50 (in vitro): > 100 µM

Nc1ncnc2c1ncn2[C@@H]1C[C@H](CNS(=O)(=O)c2ccc3ccccc3c2)[C@@H](O)[C@H]1O [Compound A1, N-(((1R,2R,3S,4R)-4-(6-Amino-9H-purin-9-yl)-2,3-dihydroxycyclopentyl)methyl)naphthalene-2-sulfonamide]
inhibition at 10 µM [1]: 33%
IC50 (SARS-CoV-2 Nsp14 MTase [2]): 0.78 µM
CC50 (in vitro): > 100 µM

CCN(C[C@H]1C[C@@H](n2cnc3c(N)ncnc32)[C@@H](O)[C@H]1O)S(=O)(=O)c1ccc2ccccc2c1 [Compound A4, N-(((1R,2S,3R,4R)-4-(6-Amino-9H-purin-9-yl)-2,3-dihydroxycyclopentyl)methyl)-N-ethylnaphthalene-2-sulfonamide]
inhibition at 10 µM [1]: 34%
IC50 (SARS-CoV-2 Nsp14 MTase [2]; [6]): 5.1 µM
CC50 (in vitro): > 100 µM

Nc1ncnn2c([C@@H]3O[C@H](CNS(=O)(=O)c4cccc5ccccc45)[C@@H](O)[C@H]3O)ccc12 [Compound 12, N-(((2R,3S,4R,5S)-5-(4-Aminopyrrolo[2,1-f][1,2,4]triazin-7-yl)-3,4-dihydroxytetrahydrofuran-2-yl)methyl)naphthalene-1-sulfonamide]
EC50 [1]: 3 µM
IC50 (SARS-CoV-2 Nsp14 MTase [2]; [6]): 7.3 µM
CC50 (in vitro): > 100 µM

Nc1ncnn2c([C@@H]3O[C@H](CNS(=O)(=O)c4ccc5c(Cl)cccc5c4)[C@@H](O)[C@H]3O)ccc12 [Compound 39, N-(((2R,3S,4R,5S)-5-(4-aminopyrrolo[2,1-f][1,2,4]triazin-7-yl)-3,4-dihydroxytetrahydrofuran-2-yl)methyl)-5-chloronaphthalene-2-sulfonamide]
IC50 (SARS-CoV-2 Nsp14 MTase [5]; methylation reaction detected by MTase-Glo kit): 0.049 µM

Nc1ncnc2c1ncn2[C@@H]1O[C@H](CNS(=O)(=O)c2ccc3nc(Cl)ccc3c2)[C@@H](O)[C@H]1O [Compound 5, N-(((2R,3S,4R,5R)-5-(6-Amino-9H-purin-9-yl)-3,4-dihydroxytetrahydrofuran-2-yl)methyl)-2-chloroquinoline-6-sulfonamide]
EC50: NA (not active) [3]: NA^a (NA, not active, <15% inhibition at 50 μM.)
IC50 (SARS-CoV-2 Nsp14 MTase [2]; [6]): 0.44 µM
fold reduction in inhibitory activity (SARS-CoV-2 Nsp14 MTase [2]; on replacing 2-naphthalene): 7 fold
CC50: NT (nontoxic) (A549/ACE2/TMPRSS2 cells): NT^b (NT, nontoxic, >95% cell viability at 50 μM;)
